Measured values published in patent US11331299B2, “Medicinal use of serrulatane diterpenes” (The University of Sydney, priority 2016, dated 2022).
Where two headings read alike, the source gives them in different places.

System: 280 human cancer cell lines
Assay: OncoPanel cell proliferation assay (10-day)
Format: cell-based
Conditions: Homo sapiens; for IC50: read-out: Cell Count IC50; for EC50: read-out: Cell Count EC50; for GI50: read-out: Cell Count GI50
[1] = SJRH30, SJRH30, Soft Tissue - Sarcoma
[2] = SJSA-1, SJSA1, Soft Tissue - Osteosarcoma
[3] = SK-LMS-1, SK-LMS-1, Soft Tissue - Sarcoma
[4] = SK-MEL3, SK-MEL-3, Skin (Melanoma)
[5] = SK-MEL-1, SK-MEL-1, Skin (Melanoma)
[6] = SK-MEL-28, SK-MEL-28, Skin (Melanoma)
[7] = SK-OV-3, SKOV3, Female GU - Ovary
[8] = SK-UT-1, SK-UT-1, Soft Tissue - Sarcoma
[9] = SW579, SW579, Endocrine - Thyroid
[10] = SW684, SW684, Soft Tissue - Sarcoma

What does the source list for CC(C)=CCC[C@H](C)[C@@H]1CC[C@@H](C)c2c1cc(C)c(O)c2O [Compound 4, 7,8-dihydroxyserrulat-14-ene]?
IC50 (SCaBER, Bladder): 16.9 µM; EC50 (SH-4, Skin (Melanoma)): 11.6 µM; GI50 (SH-4, Skin (Melanoma)): 11.5 µM; IC50 (SH-4, Skin (Melanoma)): 11.6 µM; EC50 (SHP77, SHP-77, Lung - SCLC): 6.83 µM; GI50 (SHP77, SHP-77, Lung - SCLC): 6.75 µM; IC50 (SHP77, SHP-77, Lung - SCLC): 6.83 µM; EC50 [1]: 3.68 µM; GI50 [1]: 3.68 µM; IC50 [1]: 3.68 µM; EC50 [2]: 7.45 µM; GI50 [2]: 7.45 µM; IC50 [2]: 7.45 µM; EC50 (SK-BR-3, SK-BR-3, Breast): 10.3 µM; GI50 (SK-BR-3, SK-BR-3, Breast): 9.97 µM; IC50 (SK-BR-3, SK-BR-3, Breast): 10.3 µM; EC50 [3]: 9.04 µM; GI50 [3]: 8.98 µM; IC50 [3]: 9.04 µM; EC50 [4]: > 30 µM; GI50 [4]: > 30 µM; IC50 [4]: > 30 µM; EC50 [5]: > 30 µM; GI50 [5]: > 30 µM; IC50 [5]: > 30 µM; EC50 [6]: 11.2 µM; GI50 [6]: 11.1 µM; IC50 [6]: 11.2 µM; EC50 (SK-MES-1, SKMES1, Lung - NSCLC): 11.6 µM; GI50 (SK-MES-1, SKMES1, Lung - NSCLC): 11.5 µM; IC50 (SK-MES-1, SKMES1, Lung - NSCLC): 11.6 µM; EC50 (SK-N-AS, CNS - Neuroblastoma): 5.86 µM; GI50 (SK-N-AS, CNS - Neuroblastoma): 5.75 µM; IC50 (SK-N-AS, CNS - Neuroblastoma): 5.86 µM; EC50 (SK-N-DZ, CNS - Neuroblastoma): 11.9 µM; GI50 (SK-N-DZ, CNS - Neuroblastoma): 11.5 µM; IC50 (SK-N-DZ, CNS - Neuroblastoma): 11.9 µM; EC50 (SK-N-FI, CNS - Neuroblastoma): 21.5 µM; GI50 (SK-N-FI, CNS - Neuroblastoma): 20.6 µM; IC50 (SK-N-FI, CNS - Neuroblastoma): 21.5 µM; EC50 [7]: 8.43 µM; GI50 [7]: 8.33 µM; IC50 [7]: 8.43 µM; EC50 (SK-PN-DW, Stomach): 4.91 µM; GI50 (SK-PN-DW, Stomach): 4.88 µM; IC50 (SK-PN-DW, Stomach): 4.91 µM; EC50 [8]: 5.49 µM; GI50 [8]: 5.46 µM; IC50 [8]: 5.49 µM; EC50 (SKO-007, SKO-007, Myeloma): 4.66 µM; GI50 (SKO-007, SKO-007, Myeloma): 4.55 µM; IC50 (SKO-007, SKO-007, Myeloma): 4.71 µM; EC50 (SNB-19, SNB-19, CNS - Glioma): 13 µM; GI50 (SNB-19, SNB-19, CNS - Glioma): 12.9 µM; IC50 (SNB-19, SNB-19, CNS - Glioma): 13 µM; EC50 (SNU1, SNU-1, Stomach): 6.99 µM; GI50 (SNU1, SNU-1, Stomach): 6.98 µM; IC50 (SNU1, SNU-1, Stomach): 6.99 µM; EC50 (SNU-5, SNU-5, Stomach): 14.4 µM; GI50 (SNU-5, SNU-5, Stomach): 14.2 µM; IC50 (SNU-5, SNU-5, Stomach): 14.4 µM; EC50 (SNU-16, SNU-16, Stomach): 11 µM; GI50 (SNU-16, SNU-16, Stomach): 11 µM; IC50 (SNU-16, SNU-16, Stomach): 11 µM; EC50 (SNU-423, SNU-423, Liver): 9.3 µM; GI50 (SNU-423, SNU-423, Liver): 9.28 µM; IC50 (SNU-423, SNU-423, Liver): 9.31 µM; EC50 (SR, Lymphoma): 4.39 µM; GI50 (SR, Lymphoma): 4.39 µM; IC50 (SR, Lymphoma): 4.39 µM; EC50 (ST486, ST486, Lymphoma): 2.66 µM; GI50 (ST486, ST486, Lymphoma): 2.65 µM; IC50 (ST486, ST486, Lymphoma): 2.66 µM; EC50 (SU-DHL10, SU-DHL-10, Lymphoma): 7.68 µM; GI50 (SU-DHL10, SU-DHL-10, Lymphoma): 7.67 µM; IC50 (SU-DHL10, SU-DHL-10, Lymphoma): 7.68 µM; EC50 (SU-DHL-4, SU-DHL-4, Lymphoma): 5.74 µM; GI50 (SU-DHL-4, SU-DHL-4, Lymphoma): 5.74 µM; IC50 (SU-DHL-4, SU-DHL-4, Lymphoma): 5.74 µM; EC50 (SU-DHL-5, SU-DHL-5, Lymphoma): 3.8 µM; GI50 (SU-DHL-5, SU-DHL-5, Lymphoma): 3.8 µM; IC50 (SU-DHL-5, SU-DHL-5, Lymphoma): 3.8 µM; EC50 (SU-DHL-8, SU-DHL-8, Lymphoma): 3.9 µM; GI50 (SU-DHL-8, SU-DHL-8, Lymphoma): 3.9 µM; IC50 (SU-DHL-8, SU-DHL-8, Lymphoma): 3.9 µM; EC50 (SU.86.86, SU.86.86, Pancreas): > 30 µM; GI50 (SU.86.86, SU.86.86, Pancreas): > 30 µM; IC50 (SU.86.86, SU.86.86, Pancreas): > 30 µM; EC50 (SUP-T1, SUP-T1, Lymphoma): 6.51 µM; GI50 (SUP-T1, SUP-T1, Lymphoma): 6.49 µM; IC50 (SUP-T1, SUP-T1, Lymphoma): 6.51 µM; EC50 (SW48, SW48, Colon): 13 µM; GI50 (SW48, SW48, Colon): 13 µM; IC50 (SW48, SW48, Colon): 13 µM; EC50 [9]: 11 µM; GI50 [9]: 11 µM; IC50 [9]: 11 µM; EC50 [10]: > 30 µM; GI50 [10]: > 30 µM; IC50 [10]: > 30 µM; EC50 (SW837, SW837, Colon): 18.9 µM
